Data: US20090305994A1, “Compounds Modulating Vegf Receptor and Uses Thereof” (priority 2005, published 2009)
One block for each molecule: values may come before it. No end group written: not given here.

Assays:
HUVEC [1] = assay: FITC-Annexin V binding of HUVEC by flow cytometry; assay type: cell-based, human; conditions: HUVEC 24 h, VEGF 20 ng/ml plus MA peptide 100 ng/ml
Experimental: (§1) (a) HUVE cells (1×10^4/cm2) were incubated whit VEGF (20 ng/ml) in the absence or presence of MA peptide (100 ng/ml), in duplicates, for 30 min. Then cell lysates were obtained and analysed in Western blot with anti-phospho-ERK antibody. b) HUVE cells (1×10^4/cm2) were incubated with VEGF (20 ng/ml) in the absence or presence of MA peptide (100 ng/ml), in triplicates, for 24 h, at 37° C. in a 5% CO2 atmosphere. Then FITC-Annexin V binding was analyzed by flow cytometry.
(§2) Fluorescence—Cells (3×105) were incubated with saturating amounts of FITC-conjugated and the other indicated reagents, 5 min at 4° C. in the dark. After washing with PBS, the cells were resuspended in PBS and analyzed with a FACScan (Becton Dickinson) flow cytometer.
Effect of MA peptide on the appearance of annexin V+ cells in cultures with VEGF. Apoptotic cells externalize phosphatidylserine, that is bound by annexin V (Steensma D P, et al., Methods Mol. Med. 2003; 85: 323-32).

HUVEC cells = assay: Binding of fluorescein-conjugated MA peptide to HUVEC cells (flow cytometry); design: species or system human
Experimental: HUVE cells (1×10^4/cm2) were incubated with 500 nM MA peptide conjugated with fluorescein and competed with increasing amount of VEGF at 30 min at 4° C. in the dark. Then, cell fluorescence was analyzed by flow cytometry.
as §2
Binding of MA peptide to HUVEC cells. To verify that MA peptide bound to HUVEC cells, we incubated the cells with MA or a scrambled peptide conjugated with fluorescein and analyze the binding by FACS.

HUVEC [2] = assay: Analysis of caspase 3 activity in HUVEC deprived of FBS; assay type: cell-based, human; conditions: VEGF 20 ng/ml plus peptide 20 ng/ml, 4 h
Experimental: HUVE cells (1×10^4/cm2) were incubated in medium without FBS, in the absence or presence of VEGF (20 ng/ml) and QK (5 ng/ml), at 37° C. in a 5% CO2 atmosphere. After 4 h, caspase 3 activity was determined. Results are expressed as mean values of triplicates.
HUVE cells (1×10^4/cm2) were incubated in medium without FBS, in the absence or presence of VEGF (20 ng/ml) and the indicated peptides (20 ng/ml), at 37° C. in a 5% CO2 atmosphere. After 4 h, caspase 3 activity was determined. Results are expressed as mean values of triplicates.
(§3) Analysis of caspase 3 activity—Cells (2×104) were lysed in a buffer containing Hepes 50 mM, DTT 1 mM, EDTA 0.1 mM, NP-40 0.1%, CHAPS 0.1% and protein quantitation determined. Protein aliquots (20 μg) were incubated with 20 μM Ac-DEVD-AMC (Pharmingen, San Diego, Calif.) in a buffer containing Hepes 50 mM, DTT 1 mM, EDTA 0.1 mM, NP-40 0.1%, CHAPS 0.1%, at 37° C. for 3 h. Caspase 3 activity was determined in the cytosolic extracts by analysing the release of 7-amino-4-methylcoumarin (AMC) from N-acetyl-DEVD-AMC (Thornberry N A, et al. Nature 1992; 356:768-74); the release of AMC was monitored in a spectrofluorometer with an excitation wavelength of 380 nm and emission wavelength of 440 nm.
as §3, with “356: 768-74);” for “356:768-74);”

ERK1/2 kinase = assay: VEGF-induced activation of ERK kinase in HUVEC (western blot); assay type: cell-based, human; conditions: VEGF 20 ng/ml plus MA 100 ng/ml, 30 min
Experimental: as §1
Western blotting. Cell total protein lysates were prepared in sample buffer (2% sodium-dodecyl-sulphate, 10% glycerol, 2% mercaptoethanol and 60 mM Tris-HCl pH 6.8 in demineralized water) on ice. Lysates (25 μg) were run on 12% SDS-PAGE gels and electrophoretically transferred to nitrocellulose. Nitrocellulose blots were blocked with 5% BSA in Tris Buffer Saline Tween-20 (TBST) buffer [20 mM Tris-HCl (pH 7.4), 500 mM NaCl, and 0.01% Tween 20] and incubated with primary antibody in TBST-5% BSA overnight at 4° C. Immunoreactivity was detected by sequential incubation with horseradish peroxidase-conjugated secondary antibody and enhanced chemiluminescence reagents following standard protocols (Amersham Bioscience, UK).
Inhibition of VEGF-induced activation of ERK kinase by MA peptide. […] We therefore investigated whether MA peptide binding to the cells could block ERK activation by VEGF.

RB = RB phosphorylation (western blot); assay type: cell-based, bovine; conditions: 12 and 18 hours; QK 10^-6 M, VEGF165 100 ng/ml, VEGF 15 10^-6 M
Experimental: Effect of QK on cell proliferation. a) DNA synthesis. BAEC were incubated in DMEM with [^3H]-thymidine and QK in absence or in presence of VEGF165 (100 ng/ml). After 24 hours cells were fixed and lysed. Scintillation liquid was added and [^3H]-thymidine incorporation was evaluated. b) Cell proliferation. BAEC were stimulated with the indicated amount of QK in absence or in presence of VEGF165 (100 ng/ml). Cell number was determined at 24 hours after stimulation. c) RB phosphorylation. p-RB was evaluated at 12 and 18 hours after stimulation with QK (10^-6M), VEGF165 (100 ng/ml) and VEGF 15 (10^−6 M).
Cells proliferation assay. Cells were seeded at a density of 10000 per well in six well plates, serum starved overnight and then stimulated with QK (10-12 to 10^−6 M) in absence or in presence of VEGF165. Cell number was determined at 24 hours after stimulation. The p-RB, was evaluated by western blot 12 and 18 hours after stimulation with QK (10^−6 M), VEGF165 and VEGF 15 (10^−6 M).

WKY rats = assay: Ischemic hindlimb model, digital angiographies and blood flow determination; assay type: in vivo, rat; conditions: 14 days
KDR = target: T1, KDR (Bos taurus, UniProt A0AAA9SPC9); assay: KDR activation (immunoprecipitation, phospho-tyrosine western blot) in BAEC; assay type: cell-based, bovine; conditions: 15 minutes of exposure
T1 construct: we immunoprecipitated total KDR and Flt-1 from BAEC whole extracts; endogenous in cells; host or cells: BAEC (bovine aorta endothelial cells, SV40-immortalized)
T1 sequence (A0AAA9SPC9 20-1356): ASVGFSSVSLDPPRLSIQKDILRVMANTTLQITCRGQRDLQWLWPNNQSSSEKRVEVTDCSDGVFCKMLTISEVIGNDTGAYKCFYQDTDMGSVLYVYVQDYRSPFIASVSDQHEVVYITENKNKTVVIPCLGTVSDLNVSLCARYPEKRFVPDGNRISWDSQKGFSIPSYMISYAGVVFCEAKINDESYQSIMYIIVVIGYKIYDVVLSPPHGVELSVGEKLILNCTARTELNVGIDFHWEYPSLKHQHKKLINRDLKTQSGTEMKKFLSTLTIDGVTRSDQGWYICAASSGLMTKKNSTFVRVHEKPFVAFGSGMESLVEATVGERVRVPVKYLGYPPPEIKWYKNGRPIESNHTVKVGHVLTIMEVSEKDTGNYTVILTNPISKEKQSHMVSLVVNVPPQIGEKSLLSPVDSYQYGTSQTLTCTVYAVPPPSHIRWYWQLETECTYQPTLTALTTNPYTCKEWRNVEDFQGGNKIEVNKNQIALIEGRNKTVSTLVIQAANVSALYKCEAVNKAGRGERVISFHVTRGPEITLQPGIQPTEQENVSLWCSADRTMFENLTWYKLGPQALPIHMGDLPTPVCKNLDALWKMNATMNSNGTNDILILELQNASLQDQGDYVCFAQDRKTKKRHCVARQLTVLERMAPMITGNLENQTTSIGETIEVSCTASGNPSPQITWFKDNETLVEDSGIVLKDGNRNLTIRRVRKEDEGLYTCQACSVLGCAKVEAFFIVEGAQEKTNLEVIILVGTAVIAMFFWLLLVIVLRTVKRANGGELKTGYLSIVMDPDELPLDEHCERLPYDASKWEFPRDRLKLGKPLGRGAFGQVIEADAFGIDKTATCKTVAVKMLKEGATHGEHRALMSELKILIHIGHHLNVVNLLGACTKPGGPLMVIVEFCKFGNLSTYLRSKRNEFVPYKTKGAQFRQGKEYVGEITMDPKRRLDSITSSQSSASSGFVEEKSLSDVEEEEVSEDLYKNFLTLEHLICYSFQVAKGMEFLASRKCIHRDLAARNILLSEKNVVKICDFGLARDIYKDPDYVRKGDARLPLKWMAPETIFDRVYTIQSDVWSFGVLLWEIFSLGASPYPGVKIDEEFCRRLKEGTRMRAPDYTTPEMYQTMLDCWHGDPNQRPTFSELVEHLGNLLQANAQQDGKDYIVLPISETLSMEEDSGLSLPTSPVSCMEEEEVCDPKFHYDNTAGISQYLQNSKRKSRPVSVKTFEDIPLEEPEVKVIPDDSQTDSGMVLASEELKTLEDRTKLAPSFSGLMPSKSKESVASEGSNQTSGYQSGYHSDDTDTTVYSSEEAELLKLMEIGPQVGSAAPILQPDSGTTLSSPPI
Experimental: (§4) VEGF receptors binding and activation. a) VEGF competitive binding on BAEC. 1 μg of membrane protein was plated with QK and [^125I]-VEGF (500000 cpm, 10^−10 M). b) KDR activation. After stimulation total KDR was immunoprecipitated from a whole-cell protein extracts and phospho-tyrosine was visualized by a specific antibody, anti-rabbit HRP-conjugated secondary antibody and standard chemiluminescence. c) Flt-1 activation. After stimulation total Flt-1 was immunoprecipitated from a whole-cell protein extracts and phospho-tyrosine was visualized by specific antibody, anti-rabbit HRP-conjugated secondary antibody and standard chemiluminescence.
(§5) Western blot. Cells were plated on six-well dishes and serum starved overnight. On the next day, cells were treated with different amount of peptide in absence or in presence of VEGF165 for 15 minutes at 37° C. and then dissolved in RIPA-SDS buffer (50 mM Tris-HCl (pH 7.5), 150 mM NaCl, 1% NP-40, 0.25% deoxycholate, 9.4 mg/50 ml sodium orthovanadate, […]). In some experiments, total KDR and Flt-1 were immunoprecipitated from an equal amount of whole-cell protein extracts using protein A/G agarose beads conjugated with antibodies raised against total KDR or Flt-1 (R&D). Proteins from whole-cell extracts or immunocomplexes were resolved by PAGE and transferred to nitrocellulose. […]

Flt-1 = target: T2, Flt-1 (Bos taurus, UniProt F1MDD9); assay: Flt-1 activation (immunoprecipitation, phospho-tyrosine western blot) in BAEC; assay type: cell-based, bovine; conditions: 15 minutes of exposure
T2 construct: we immunoprecipitated total KDR and Flt-1 from BAEC whole extracts; endogenous in cells; host or cells: BAEC (bovine aorta endothelial cells, SV40-immortalized)
T2 sequence (F1MDD9 1-1251): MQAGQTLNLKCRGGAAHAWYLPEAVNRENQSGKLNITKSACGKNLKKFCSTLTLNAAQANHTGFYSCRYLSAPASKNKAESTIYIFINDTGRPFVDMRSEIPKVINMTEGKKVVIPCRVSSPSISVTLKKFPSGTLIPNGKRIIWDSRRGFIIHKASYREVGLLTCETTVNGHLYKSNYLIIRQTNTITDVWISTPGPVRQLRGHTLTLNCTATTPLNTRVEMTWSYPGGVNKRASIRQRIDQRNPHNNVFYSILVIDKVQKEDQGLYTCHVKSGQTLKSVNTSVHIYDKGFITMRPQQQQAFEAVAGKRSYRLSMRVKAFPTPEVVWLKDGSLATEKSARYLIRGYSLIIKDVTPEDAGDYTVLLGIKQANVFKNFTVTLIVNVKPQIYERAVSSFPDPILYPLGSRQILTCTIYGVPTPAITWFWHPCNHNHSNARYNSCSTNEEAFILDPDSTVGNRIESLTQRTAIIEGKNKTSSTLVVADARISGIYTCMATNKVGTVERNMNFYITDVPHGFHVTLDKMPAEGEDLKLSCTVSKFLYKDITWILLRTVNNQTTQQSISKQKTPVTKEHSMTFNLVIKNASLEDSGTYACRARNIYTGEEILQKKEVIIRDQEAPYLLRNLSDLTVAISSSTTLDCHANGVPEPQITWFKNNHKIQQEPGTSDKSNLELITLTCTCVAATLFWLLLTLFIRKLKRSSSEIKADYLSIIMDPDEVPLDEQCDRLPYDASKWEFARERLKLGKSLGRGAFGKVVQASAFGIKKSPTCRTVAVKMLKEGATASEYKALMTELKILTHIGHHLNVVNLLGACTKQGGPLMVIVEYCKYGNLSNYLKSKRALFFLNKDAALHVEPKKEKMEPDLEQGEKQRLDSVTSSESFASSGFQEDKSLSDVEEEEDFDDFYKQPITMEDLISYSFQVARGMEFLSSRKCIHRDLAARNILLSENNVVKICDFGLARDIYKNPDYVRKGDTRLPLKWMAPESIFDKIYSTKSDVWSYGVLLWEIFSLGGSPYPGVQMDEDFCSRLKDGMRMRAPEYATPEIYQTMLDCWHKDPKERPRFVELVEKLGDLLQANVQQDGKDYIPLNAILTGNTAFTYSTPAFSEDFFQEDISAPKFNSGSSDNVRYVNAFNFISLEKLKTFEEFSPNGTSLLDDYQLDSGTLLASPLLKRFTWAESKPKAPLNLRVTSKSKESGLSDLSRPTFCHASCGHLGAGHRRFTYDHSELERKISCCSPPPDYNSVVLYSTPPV
Experimental: as §4, §5

[3] = target: VEGF receptors on bovine aorta endothelial cell (BAEC) membranes; assay: displacement of [125I]-VEGF from BAEC membranes (1 ug membrane protein) by QK at 10^-13 to 10^-8 M, gamma counter

effect on VEGF anti-apoptotic activity (caspase 3) (HUVEC [2]): abolished
Molecule: KLTWMELYQLAYKGI (KLTWMELYQLAYKGI-NH2) [MA]
annexin V+ cells (HUVEC [1]): > 22%
binding to HUVEC cells (HUVEC cells; fluorescein-conjugated peptide, FACS): specifically bound to the cells in a dose-dependent manner
levels of phosphorylated ERK1/2 kinase with VEGF in the presence of peptide (ERK1/2 kinase): highly reduced

Molecule: KLTWMELYQLKYKGI (KLTWMELYQLKYKGI-NH2) [MK]
effect on VEGF anti-apoptotic activity (caspase 3) (HUVEC [2]): partially inhibited the effect of the growth factor

Molecule: VEGF165: Vascular Endothelial Growth Factor, most abundant isoform, 45 KDa glycoprotein (Alexis), positive control in Example 1
phosphorylation of the cyclin RB (RB): enhanced phosphorylation of the cyclin RB
BEADS Ischemic to non ischemic (WKY rats; dyed beads dilution, muscle ratio, infusion 10^-7 M): 0.97 ± 0.12
ANGIOGRAPHY Number of TFC (WKY rats; ischemic hindlimb, chronic intrafemoral artery infusion 10^-7 M): 18 ± 2
phospho-KDR levels (KDR): caused the reduction in the levels of phospho-KDR at the membrane
Flt-1 phosphorylation (Flt-1): increases Flt-1 phosphorylation

B1: human recombinant VEGF: Human recombinant VEGF obtained from R&D, used in Example 2 on HUVEC (protein)
chain: APMAEGGGQNHHEVVKFMDVYQRSYCHPIETLVDIFQEYPDEIEYIFKPSCVPLMRCGGCCNDEGLECVPTEESNITMQIMRIKPHQGQHIGEMSFLQHNKCECRPKKDRARQENPCGPCSERRKHLFVQDPQTCKCSCKNTDSRCKARQLELNERTCRCDKPRR
competition with fluorescein-conjugated MA peptide on HUVEC (HUVEC cells; 500 nM MA peptide, increasing amount of VEGF, 4° C.): appeared to compete with MA peptide

Kd [3]: 0.316 nM
Molecule: Ac-KLTWQELYQLKYKGI-NH2 [QK peptide (SEQ ID No.8)]
